The results in this text go back to patent publication US20250281472A1, “OPHTHALMIC COMPOSITION INHIBITING OCCURRENCE OF N-OXOPYRIDINE COMPOUND FOR PREVENTING OR TREATING EYE DISEASE” (Samjin Pharmaceutical Co., Ltd., priority 2021, published 2025).

The data set is described as follows: Long-term storage of the active ingredient as a liquid eye drop (impurity formation). Type of data set: physicochemical. The source says: The present invention is to provide a composition capable of providing an eye drop treatment for various eye diseases. For this purpose, the composition has the essential condition of securing the stability of the active ingredient in a liquid state as an eye drop for about six months or more. […] And as a result of confirming a structure of the corresponding impurity, it was confirmed that the impurity is 3-phenyl-4-propyl-1-(N-oxopyridin-2-yl)-1H-pyrazol-5-ol (hereinafter, N-oxopyridine compound), in which an N-oxide structure is formed in a pyridine structure of the active ingredient. If the pH condition is adjusted to a neutral region where the active ingredient is stable, most impurities are controlled to be within about 0.5%. However, it was confirmed that the N-oxopyridine compound drastically increases to a level exceeding about 30% with a decrease in the active ingredient content even when the pH is controlled.

Where only a bound is given, the exact number is not on record here.

As to `CCCc1c(-c2ccccc2)nn(-c2ccccn2)c1O` [3-phenyl-4-propyl-1-(pyridin-2-yl)-1H-pyrazol-5-ol], the “level of N-oxopyridine compound” value (liquid eye drop stored about six months or more, long-term storage condition, pH controlled to neutral region) is given as “exceeding 30%”. Moreover, the “most impurities (other than N-oxopyridine compound)” value (liquid eye drop, pH adjusted to a neutral region) is not above 0.5%.
